Experimental data from patent US11712434B2, “Compound having anti-cancer effect, and preparation method therefor and use thereof” (3D MEDICINES (BEIJING) CO., LTD., priority 2016, dated 2023).

Assays:
Assay in all cases: Cell proliferation assay (Alamar Blue)
Format in all cases: cell-based
[1] = tested on: SNU398; conditions: SNU398 liver cancer cell line, 6 days culture
Method: (§1) 1. Instruments and Materials • Thermo 311 CO2 incubator; Haier biosafety cabinet; Molecular Devices microplate reader; Xiangyi brand L530 desktop low speed centrifuge; Olympus IX51 inverted fluorescence microscope, DMEM, RPMI 1640, MEM, DMEM/F12 1:1 medium, Fetal bovine serum, 0.25% trypsin solution, phosphate buffer (Thermo Fisher Shanghai Co., Ltd.); sigma dimethyl sulfoxide (DMSO), resazurin; 54 commercial tumor cell lines (including 26 liver cancer cell lines). Experimental drugs: compounds 1-12 and active drug Linifanib; chemotherapeutic drug Doxorubicin (HY-15142; Shanghai Qianyuan Biomedical Technology Co., Ltd.).
(§2) 2. Experimental Methods • 2.1 Cultivation of Different Cell Lines • 54 cell lines were cultured in a culture medium containing fetal bovine serum and placed in a 5% CO2 incubator at 37° C. for incubation. The cells were all grown in an adherent state, and the growth was observed under an inverted microscope, and subculture was performed when the cell confluence rate reached 80%-90%. The proportion and quantity of passage were determined by experimental needs. The ratio of subculture of this cell line was generally 1:2^˜1:3. • 2.2 Inhibition Effect on the Proliferation of Different Tumor Cell Lines • Cell test: 54 cell lines in logarithmic growth phase were inoculated in 96-well culture plates at 500^˜1×10^4/well (the optimal seeding density of each cell line was determined in pre-experiment), After incubating at 37° C. for 4 h in a 5% CO2 humidification incubator, added 10 μL of compounds 1-12 or Linifanib to each well, and tested 9 drug concentration gradients for each compound (diluted from the highest concentration of the test by 3.16 times). The solubility of each compound was different at a starting concentration of 100 or 30 μM, respectively. The QC reference compound Doxorubicin was added simultaneously to each cell line test, and the final drug concentrations were 10, 3.16, 1, 0.31, 0.1, 0.03, 0.01, 0.003, and 0.001 μM, respectively. In addition, a positive control group (100% inhibition) and a negative control group (0% inhibition) were set at the same time. The drug group was repeated for 2 wells per concentration, and the positive control group and the negative control group were repeated for 6 wells. After the culture was continued for 6 days in the incubator, AlamarBlue test operation was followed; • AlamarBlue test procedure: Incubated with 10 μL of AlamarBlue reagent per well for 1-4 h, shook for 1-2 min, MD microplate reader EX: 560 nm, EM: 590 nm wavelength to measure fluorescence, recorded the results, calculated the cell inhibition rate of the compound of the invention. Cell inhibition rate (%)=(A0% inhibition−A administration)/(A0% inhibition−A100% inhibition)×100%, and then using the method of nonlinear regression using GraphPad Prism 5.0 or MATILAB software (usually using four parameters) to graph and obtain a drug dose response curve to obtain an IC50 value of the compound of the present invention acting on a cancer cell line.

[2] = tested on: MDA-MB-231; conditions: MDA-MB-231 tumor cell line, 6 days culture
Method: as §1, §2

[3] = tested on: NCI-H661; conditions: NCI-H661 tumor cell line, 6 days culture
Method: as §1, §2

[4] = tested on: HLF; conditions: HLF liver cancer cell line, 6 days culture
Method: as §1, §2

[5] = tested on: Alexander cells; conditions: Alexander cells liver cancer cell line, 6 days culture
Method: as §1, §2

[6] = tested on: AN3CA; conditions: AN3CA tumor cell line, 6 days culture
Method: as §1, §2

[7] = tested on: KM12; conditions: KM12 tumor cell line, 6 days culture
Method: as §1, §2

[8] = tested on: DLD1; conditions: DLD1 tumor cell line, 6 days culture
Method: as §1, §2

[9] = tested on: SNU739; conditions: SNU739 liver cancer cell line, 6 days culture
Method: as §1, §2

[10] = tested on: HUH6; conditions: HUH6 liver cancer cell line, 6 days culture
Method: as §1, §2

[11] = tested on: JHH6; conditions: JHH6 liver cancer cell line, 6 days culture
Method: as §1, §2

[12] = tested on: SNU387; conditions: SNU387 liver cancer cell line, 6 days culture
Method: as §1, §2

[13] = tested on: LC-2-ad; conditions: LC-2-ad tumor cell line, 6 days culture
Method: as §1, §2

[14] = tested on: KASUMI-1; conditions: KASUMI-1 (leukemia cells), 6 days culture
Method: as §1, §2

[15] = tested on: HUH1; conditions: HUH1 liver cancer cell line, 6 days culture
Method: as §1, §2

[16] = tested on: K562; conditions: K562 tumor cell line, 6 days culture
Method: as §1, §2

[17] = tested on: SNU886; conditions: SNU886 liver cancer cell line, 6 days culture
Method: as §1, §2

[18] = tested on: SW620; conditions: SW620 tumor cell line, 6 days culture
Method: as §1, §2

[19] = tested on: NCI-H716; conditions: NCI-H716 tumor cell line, 6 days culture
Method: as §1, §2

[20] = tested on: NCI-H1648; conditions: NCI-H1648 tumor cell line, 6 days culture
Method: as §1, §2

[21] = tested on: TE-15; conditions: TE-15 tumor cell line, 6 days culture
Method: as §1, §2

[22] = tested on: T.T; conditions: T.T tumor cell line, 6 days culture
Method: as §1, §2

[23] = tested on: SNU423; conditions: SNU423 liver cancer cell line, 6 days culture
Method: as §1, §2

[24] = tested on: LNCAP-clone-FGC; conditions: LNCAP-clone-FGC tumor cell line, 6 days culture
Method: as §1, §2

[25] = tested on: HLE; conditions: HLE liver cancer cell line, 6 days culture
Method: as §1, §2

[26] = tested on: JHH7; conditions: JHH7 liver cancer cell line, 6 days culture
Method: as §1, §2

[27] = tested on: TE-6; conditions: TE-6 tumor cell line, 6 days culture
Method: as §1, §2

[28] = tested on: SNU761; conditions: SNU761 liver cancer cell line, 6 days culture
Method: as §1, §2

Q: Which IC50 ([1]; Homo sapiens, SNU-398, 144 h) does the source give for `Cc1ccc(F)c(NC(=O)Nc2ccc(-c3cccc4[nH]nc(NC(=O)C[C@H](N)C(=O)O)c34)cc2)c1` [Compound 10] here?
A: Its IC50 is 1.64 µM.

Q: And the IC50 ([2]; Homo sapiens, 144 h)?
A: The IC50 was 4.63 µM.

Q: What about the IC50 ([3]; Homo sapiens, 144 h) of the same molecule?
A: The IC50 was 18 µM.

Q: And the IC50 ([4]; 144 h)?
A: Its IC50 is 4.85 µM.

Q: What about the IC50 ([5]; 144 h) of the same molecule?
A: The IC50 was 3.79 µM.

Q: And the IC50 ([6]; Homo sapiens, AN3-CA, 144 h)?
A: Its IC50 is 0.27 µM.

Q: And the IC50 ([7]; Homo sapiens, 144 h)?
A: The IC50 was 2.43 µM.

Q: And the IC50 ([8]; Homo sapiens, DLD-1, 144 h)?
A: Its IC50 is 10.5 µM.

Q: What about the IC50 ([9]; SNU-739, 144 h) of the same molecule?
A: Its IC50 is 5.29 µM.

Q: And the IC50 ([10]; Homo sapiens, HuH-6, 144 h)?
A: Its IC50 is 43.8 µM.

Q: And the IC50 ([11]; 144 h)?
A: Its IC50 is 5.38 µM.

Q: And the IC50 ([12]; Homo sapiens, SNU-387, 144 h)?
A: Its IC50 is 20.1 µM.

Q: And the IC50 ([13]; Homo sapiens, 144 h)?
A: Its IC50 is 3.33 µM.

Q: What about the IC50 ([14]; Homo sapiens, 144 h) of the same molecule?
A: The IC50 was 0.01 µM.

Q: What about the IC50 ([15]; Homo sapiens, HuH-1, 144 h) of the same molecule?
A: Its IC50 is 3.88 µM.

Q: And the IC50 ([16]; Homo sapiens, 144 h)?
A: The IC50 was 14.6 µM.

Q: And the IC50 ([17]; SNU-886, 144 h)?
A: The IC50 was 6.19 µM.

Q: What about the IC50 ([18]; Homo sapiens, SW-620, 144 h) of the same molecule?
A: The IC50 was 3.46 µM.

Q: And the IC50 ([19]; Homo sapiens, 144 h)?
A: The IC50 was 5.09 µM.

Q: What about the IC50 ([20]; Homo sapiens, 144 h) of the same molecule?
A: Its IC50 is 7.42 µM.

Q: And the IC50 ([21]; Homo sapiens, 144 h)?
A: The IC50 was 2.58 µM.

Q: What about the IC50 ([22]; Homo sapiens, TT, 144 h) of the same molecule?
A: Its IC50 is 7.38 µM.

Q: What about the IC50 ([23]; Homo sapiens, SNU-423, 144 h) of the same molecule?
A: The IC50 was 15.3 µM.

Q: And the IC50 ([24]; Homo sapiens, 144 h)?
A: The IC50 was 14.8 µM.

Q: What about the IC50 ([25]; Homo sapiens, 144 h) of the same molecule?
A: Its IC50 is 2.16 µM.

Q: What about the IC50 ([26]; 144 h) of the same molecule?
A: The IC50 was 1.36 µM.

Q: And the IC50 ([27]; Homo sapiens, 144 h)?
A: Its IC50 is 6.98 µM.

Q: And the IC50 ([28]; 144 h)?
A: The IC50 was 8.73 µM.

Q: Which IC50 [1] does the source give for `Cc1ccc(F)c(NC(=O)Nc2ccc(-c3cccc4[nH]nc(NC(=O)CCCCCNC(=O)C[C@H](N)C(=O)O)c34)cc2)c1` [Compound 11] here?
A: Its IC50 is greater than 100 µM.

Q: And the IC50 [2]?
A: The IC50 was greater than 100 µM.

Q: And the IC50 [3]?
A: Its IC50 is greater than 100 µM.

Q: What about the IC50 [4] of the same molecule?
A: The IC50 was 95.7 µM.

Q: And the IC50 [5]?
A: Its IC50 is greater than 100 µM.

Q: What about the IC50 [6] of the same molecule?
A: The IC50 was 17.4 µM.

Q: And the IC50 [7]?
A: The IC50 was greater than 100 µM.

Q: And the IC50 [8]?
A: The IC50 was greater than 100 µM.

Q: And the IC50 [9]?
A: The IC50 was greater than 100 µM.

Q: And the IC50 [10]?
A: The IC50 was greater than 100 µM.

Q: What about the IC50 [11] of the same molecule?
A: The IC50 was greater than 100 µM.

Q: And the IC50 [12]?
A: The IC50 was greater than 100 µM.

Q: What about the IC50 [13] of the same molecule?
A: The IC50 was greater than 100 µM.

Q: And the IC50 [14]?
A: The IC50 was 1.09 µM.

Q: What about the IC50 [15] of the same molecule?
A: Its IC50 is greater than 100 µM.

Q: What about the IC50 [16] of the same molecule?
A: The IC50 was greater than 100 µM.

Q: What about the IC50 [17] of the same molecule?
A: Its IC50 is greater than 100 µM.

Q: And the IC50 [18]?
A: Its IC50 is greater than 100 µM.

Q: What about the IC50 [19] of the same molecule?
A: Its IC50 is 67.4 µM.

Q: What about the IC50 [20] of the same molecule?
A: Its IC50 is greater than 100 µM.

Q: And the IC50 [21]?
A: The IC50 was greater than 100 µM.

Q: And the IC50 [22]?
A: The IC50 was greater than 100 µM.

Q: What about the IC50 [23] of the same molecule?
A: Its IC50 is greater than 100 µM.

Q: What about the IC50 [24] of the same molecule?
A: Its IC50 is greater than 100 µM.

Q: What about the IC50 [25] of the same molecule?
A: Its IC50 is greater than 100 µM.

Q: And the IC50 [26]?
A: Its IC50 is greater than 100 µM.

Q: And the IC50 [27]?
A: Its IC50 is greater than 100 µM.

Q: What about the IC50 [28] of the same molecule?
A: The IC50 was greater than 100 µM.

Q: Which results are given for `Cc1ccc(F)c(NC(=O)Nc2ccc(-c3cccc4[nH]nc(NC(=O)CCCCCCCCCCCNC(=O)C[C@H](N)C(=O)O)c34)cc2)c1` [Compound 12]?
A: IC50 [1]: > 100 µM; IC50 [2]: 79.5 µM; IC50 [3]: > 100 µM; IC50 [4]: > 100 µM; IC50 [5]: 77.1 µM; IC50 [6]: 3.84 µM; IC50 [7]: 82.5 µM; IC50 [8]: > 100 µM; IC50 [9]: > 100 µM; IC50 [10]: > 100 µM; IC50 [11]: 85.8 µM; IC50 [12]: > 100 µM; IC50 [13]: 22.9 µM; IC50 [14]: 0.49 µM; IC50 [15]: > 100 µM; IC50 [16]: > 100 µM; IC50 [17]: 41.9 µM; IC50 [18]: 55.6 µM; IC50 [19]: 35.5 µM; IC50 [20]: > 100 µM; IC50 [21]: > 100 µM; IC50 [22]: > 100 µM; IC50 [23]: > 100 µM; IC50 [24]: 70.5 µM; IC50 [25]: > 100 µM; IC50 [26]: 67.2 µM; IC50 [27]: > 100 µM; IC50 [28]: > 100 µM
